Results published in PubChem BioAssay AID588780 (Sanford-Burnham Center for Chemical Genomics, 2011).
Calls of active or inactive are those of the source.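 How the source made its calls: active means compounds whose fitted half-maximal concentration in the cell-protection dose series is at or below a set limit; inactive means the rest.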

Test system: H9c2 cardiomyocytes, 2-deoxyglucose stress, ATP luminescence, 2 h
Assay: H9c2 cell survival under 2-deoxyglucose stress – uHTS hits, dose response (AID 588780)

Compound	IC50
O=C(N/N=C/c1ccccn1)c1ccc(NC(=O)c2cccc([N+](=O)[O-])c2)cc1	11.5 µM
CC(=O)CCc1ccc(Oc2nc(-c3cccnc3)nc3ccccc23)cc1	> 79 µM (inactive)
Cc1c(O)c(CN2CCCCC2)cc2c1oc(=O)c1ccccc12	> 79 µM (inactive)
CC(C)(C)C(=O)Nc1cccc(-c2nnc(-c3cccc(NC(=O)C(C)(C)C)c3)o2)c1	> 79 µM (inactive)
CC(C)OCCCNC(=O)CCC(=O)NNc1nc2ccccc2c2nc(-c3ccccc3)nn12	> 79 µM (inactive)
Cc1ccc(-c2nnc(NCc3nc4ccccc4[nH]3)c3ccccc23)cc1S(=O)(=O)N1CCOCC1	> 79 µM (inactive)
O=C(c1cc(-c2cccnc2)nc2ccc(Br)cc12)N1CCN(c2ncccn2)CC1	9.44 µM
CCN1C(=O)[C@H]2[C@H]3CN=C(SCc4ccc(C#N)cc4)N3[C@@](Cc3ccccc3)(C(=O)OC)[C@H]2C1=O	> 79 µM (inactive)
COc1cc(C(=O)N/N=C/c2ccc(OC(=O)c3ccccc3Cl)cc2)ccc1O	> 79 µM (inactive)
COC(=O)c1ccc(N)c(N=CC2=C(O)CC(C)(C)CC2=O)c1	10.8 µM
COc1ccc(N(CC(=O)NCCSc2ccccc2)S(=O)(=O)c2ccccc2)c(OC)c1	12.3 µM
CCOC(=O)c1c(C)[nH]c(C(=O)COc2ccc3ccc(=O)oc3c2)c1C	> 79 µM (inactive)
CC(=O)Nc1ccc2c(c1)[nH]c(=O)c1ccccc12	76.5 µM (inactive)
O=C(c1cc2nc(-c3ccccc3)cc(-c3ccccc3)n2n1)N1CCN(C(=O)c2ccco2)CC1	9.32 µM
CCOC(=O)C1CCN(c2cc3c(cc2NC(=O)c2ccccc2)n(C)c(=O)n3C)CC1	> 79 µM (inactive)
CSc1nsc(SC)c1C(=O)N1CCN(S(=O)(=O)c2ccc(C)cc2)C1C(C)C (stereo not drawn)	21.7 µM
CCOc1cccc(-c2c(C(=O)N/N=C(\C)c3ccccn3)nnn2-c2nonc2N)c1	> 79 µM (inactive)
COc1ccc(C(C(=O)NCc2ccccc2)N(Cc2ccco2)C(=O)c2snc(C(N)=O)c2N)cc1 (stereo not drawn)	> 79 µM (inactive)
CCOc1ccc(CCNC(=O)c2cc3c(C)nccc3[nH]c2=O)cc1OCC	12.4 µM
O=C(COC(=O)Cc1n[nH]c(=O)c2ccccc12)NNC(=O)c1ccc(Cl)cc1	> 79 µM (inactive)
CNc1ccccc(C(=O)/C=C/c2ccccc2OC)c1=O	> 79 µM (inactive)
COc1cccc(-c2cc3nc(C)c(C)c(N4CCN(C(=O)c5ccoc5)CC4)n3n2)c1	> 79 µM (inactive)
Cc1ccc(C)c(S(=O)(=O)N2CCN(C(=O)Cn3[nH]c(=O)c4ccccc4c3=O)CC2)c1	> 79 µM (inactive)
O=C(CCc1nc2ccccc2c(=O)[nH]1)NCC(=O)Nc1ccc(F)c(F)c1	> 79 µM (inactive)

Compound	IC50
COc1cccc(-c2nnc(NC(=O)c3ccc(Cl)s3)o2)c1	> 79 µM (inactive)
O=c1[nH]nc(Cc2ccc([N+](=O)[O-])cc2)c2ccccc12	29.5 µM
Cc1cccc(NC(=O)c2nc[nH]c2C(=O)NCCCCCCNC(=O)c2[nH]cnc2C(=O)Nc2cccc(C)c2)c1	> 79 µM (inactive)
COc1cc(/C=N/NC(=O)c2ccccc2)ccc1OS(=O)(=O)c1ccccc1	9.14 µM
COC(=O)c1ccc(Cn2nnc3c(=O)[nH]c(C4CCCN(S(=O)(=O)c5ccccc5)C4)nc32)cc1 (stereo not drawn)	> 79 µM (inactive)
COC(=O)Cc1n[nH]c(=O)c2ccccc12	> 79 µM (inactive)
CCCCn1c(NC(=O)c2ccccc2)nc2ccccc21	> 79 µM (inactive)
COc1ccc(-c2cc(NC(C)=O)c3ncc(-c4ccc(OC)c(OC)c4)n3c2)cc1OC	> 79 µM (inactive)
CCOC(=O)C1CCN(C(=O)c2ccc3c(=O)n4nc(Nc5ccccc5OC)sc4nc3c2)CC1	19.3 µM
CCC(=O)Oc1ccc2c(C)cc(=O)oc2c1C	> 79 µM (inactive)
COc1ccccc1-c1cc2nc(-c3ccccc3)cc(N3CCN(C(=O)c4ccoc4)CC3)n2n1	> 79 µM (inactive)
Fc1ccc(-n2cc(-c3ccccc3)c3c(N4CCOCC4)ncnc32)cc1	> 79 µM (inactive)
Cc1c(N=Cc2cc(Br)cc(Br)c2O)cccc1C(=O)O	> 79 µM (inactive)
CCCn1c(=O)c2[nH]c(-c3ccc(OCC(=O)Nc4ccc(C#N)cc4)cc3)nc2n(CCC)c1=O	> 79 µM (inactive)
Cc1ccc(NCc2ccc(O)c3ncccc23)cc1C	> 79 µM (inactive)
CC(Oc1ccc(Br)cc1)C(=O)Nc1nc(-c2ccccn2)cs1 (stereo not drawn)	> 79 µM (inactive)
Cc1cc(C)n2nc(C(=O)N/N=C/c3c4ccccc4cc4ccccc34)nc2n1	> 79 µM (inactive)
CN(C)S(=O)(=O)n1cc(/C=C(\NC(=O)c2ccccc2F)C(=O)NCCN2CCOCC2)c2ccccc21	> 79 µM (inactive)
Cc1cc(-c2nn3c(-c4ccccc4)nnc3s2)c2ccccc2n1	> 79 µM (inactive)
CSc1nc2ncc3c(n2n1)CC1c2ccccc2CCN1C3=O (stereo not drawn)	> 79 µM (inactive)
CCN(CC)C(=O)CSc1nc2ccccc2c(=O)[nH]1	> 79 µM (inactive)
Cc1sc2nc(SCC(=O)N3CCCC3)[nH]c(=O)c2c1C	> 79 µM (inactive)
CCOc1ccc(S(=O)(=O)N(C)CCO)cc1-c1nc2c(C(C)(C)C)nn(C)c2c(=O)[nH]1	26.9 µM
COc1ccccc1NS(=O)(=O)c1cc(NC(=O)CCc2nc3ccccc3c(=O)[nH]2)ccc1C	11.4 µM

Compound	IC50
CSc1nc2sc3c(c2c(=O)[nH]1)CCC3	> 79 µM (inactive)
CCn1c(SCC(=O)Nc2ccccc2N2CCCCC2)nc2c1c(=O)n(C)c(=O)n2C	12.6 µM
CN(CC(=O)Nc1cccc(F)c1)C(=O)CCc1nc2ccccc2c(=O)[nH]1	> 79 µM (inactive)
O=C(Cn1[nH]c(=O)c2ccccc2c1=O)OCC(=O)N(Cc1ccccc1)Cc1ccccc1	> 79 µM (inactive)
CCOC(=O)c1nc(Nc2ccc(C(C)=O)cc2)c2ccccc2n1	18.9 µM
COC(=O)Sc1nc(N2CCOCC2)c2c(c1C#N)CC(C)(C)OC2	> 79 µM (inactive)
O=C(N/N=C/c1cn(-c2ccccc2)nc1-c1cccs1)c1ccccc1F	> 79 µM (inactive)
O=C(Nc1nc(-c2cc(F)ccc2F)cs1)C1=NN(c2ccccc2)C(=O)CC1	> 79 µM (inactive)
CC1(C)CC2CC(C)(CN2C(=O)COC(=O)c2n[nH]c(=O)c3ccccc23)C1 (stereo not drawn)	> 79 µM (inactive)
COCCCn1c(N)c(C(=O)Nc2sc3c(c2C(=O)OC)CCCC3)c2nc3ccccc3nc21	34 µM (inactive)
O=C(COc1ccc(Cl)cc1)NCc1n[nH]c(=O)c2ccccc12	> 79 µM (inactive)
O=C(COC(=O)c1c2c(nc3ccccc13)/C(=C/c1cccc([N+](=O)[O-])c1)CCC2)NC1CCS(=O)(=O)C1 (stereo not drawn)	13.4 µM
COCCOC(=O)N/C=C\c1nc2ccccc2c(=O)[nH]1	26.7 µM
CC1CCN(CCCNC(=O)c2n[nH]c(=O)c3ccccc23)CC1	> 79 µM (inactive)
COc1ccc2[nH]c(=O)c(CN(Cc3ccco3)Cc3nnnn3Cc3ccccc3)cc2c1	> 79 µM (inactive)
COc1cc(NC(=O)c2cc([N+](=O)[O-])ccc2NC(=O)CN2CCN(c3ccccn3)CC2)cc(OC)c1	> 79 µM (inactive)
CN(CC(=O)Nc1ccccc1Cl)C(=O)CCc1nc2ccccc2c(=O)[nH]1	38 µM (inactive)
COC(=O)c1cc(OC)c(OC)cc1NC(=O)c1ccc(C)o1	25.9 µM
O=C(N/N=C/c1ccncc1)c1ccc(COc2cccc3cccnc23)cc1	> 79 µM (inactive)
O=C(CSC1=NNC(c2ccccn2)S1)Nc1cccc(Cl)c1 (stereo not drawn)	> 79 µM (inactive)
COc1cccc(-c2nn(-c3ccccc3)cc2C(=O)Nc2nccs2)c1	> 79 µM (inactive)
Cc1nn(-c2ccccc2)nc1C(=O)Nc1cccc(C(=O)NC2CC2)c1	> 79 µM (inactive)
Cc1cc(C)nc(SCc2ccc(C(=O)N/N=C/c3ccccn3)cc2)n1	> 79 µM (inactive)
Cc1sc2nc(SCC(=O)NCc3ccco3)[nH]c(=O)c2c1C	> 79 µM (inactive)

Compound	IC50
CC(=O)Nc1ccc(S(=O)(=O)N(Cc2cccnc2)Cc2cc3ccccc3[nH]c2=O)cc1	> 79 µM (inactive)
COc1cc(NC(=O)c2cc3nc(-c4ccccc4)cc(-c4ccccc4)n3n2)cc(OC)c1OC	> 79 µM (inactive)
O=C(NC(O)C(=O)c1cccs1)c1cccnc1 (stereo not drawn)	> 79 µM (inactive)
O=C(COC(=O)Cc1n[nH]c(=O)c2ccccc12)NNC(=O)c1ccc(Br)cc1	> 79 µM (inactive)
CC(=O)Nc1ccc(S(=O)(=O)N(Cc2ccco2)Cc2cc3ccccc3[nH]c2=O)cc1	> 79 µM (inactive)
O=C(CNC(=O)c1nc[nH]c1C(=O)NCC(=O)OCc1ccccc1)OCc1ccccc1	39.5 µM (inactive)
O=C(NNC(=O)c1cc2cc(Br)ccc2oc1=O)c1ccc(O)cc1O	31.7 µM (inactive)
COc1cc(-c2cc(C(=O)Nc3ccccc3N3CCOCC3)c3ccccc3n2)cc(OC)c1OC	> 79 µM (inactive)
Cc1ccc(OCC(=O)Nc2nc(-c3ccccn3)cs2)c(C)c1	16.4 µM
O=C(NC1CCCCC1)C(c1ccc2ncccc2c1)N(Cc1cccs1)C(=O)c1cccs1 (stereo not drawn)	22 µM
Cc1ccc(NC(=O)c2nc[nH]c2C(=O)NCCCCCNC(=O)OC(C)(C)C)cc1	> 79 µM (inactive)
COc1cc(OC)c(-c2nn3c(-c4ccco4)nnc3s2)cc1OC	6.54 µM
COc1ccc(Nc2nc(C(=O)N3CCc4cc(OC)c(OC)cc4C3)cs2)cc1	> 79 µM (inactive)
C/C(=N\NC(=O)c1c(Br)c(C)nn1C)c1ccc(NC(=O)c2ccoc2C)cc1	> 79 µM (inactive)
O=C(COC(=O)CCc1nc2ccccc2c(=O)[nH]1)NCc1ccc(F)cc1	> 79 µM (inactive)
Cc1cccc(-n2c(SCc3cc(=O)n4ccsc4n3)nc3ccccc3c2=O)c1	14 µM
CC(C)(C)c1ccc(OCC(=O)Nc2ccc3c4c(cccc24)C(=O)NC3=O)cc1	> 79 µM (inactive)
O=C(Nc1ccc(CN2CCOCC2)cc1)c1ccc(-c2cccc([N+](=O)[O-])c2)o1	> 79 µM (inactive)
COc1ccc2[nH]c(=O)c(CN(Cc3nnnn3Cc3ccccc3)CC3CCCO3)cc2c1 (stereo not drawn)	> 79 µM (inactive)
CCOC(=O)Cc1c(C)nc2c(-c3ccc(Cl)cc3)c[nH]n2c1=O	> 79 µM (inactive)
O=C(C(=O)N(Cc1ccccc1)Cc1ccccc1)c1c(-c2ccccc2)[nH]c2ccccc12	> 79 µM (inactive)
